Test results as given in patent publication US20170082610A1, “METHOD FOR PREDICTING TOXICITY OF A COMPOUND BASED ON NUCLEAR FACTOR-kB TRANSLOCATION” (priority 2014, published 2017).
Read-outs that look alike come from different tables or passages of the source.

Experiments:
NF-κB p65 [1] = assay: HCS assay of compound-induced NF-κB p65 nuclear translocation in HPTC (Example 2); type: cell-based, human
NF-κB p65 [2] = assay: HCS assay of compound-induced NF-κB p65 nuclear translocation in HPTC1 (Example 3); type: cell-based, human; settings: for nuclear translocation of NF-κB (positive control sample): FIG. 9
Text: (§1) No. 58488852 (HPTC 1) and Lot. No. 61247356 (HPTC10), were bought from the American Type Culture Collection (ATCC, Manassas, Va., USA). HPTC6 were isolated from a nephrectomy sample obtained from the National University Health System (NUHS, Singapore). Only normal tissue without pathological changes was used, which was selected by a pathologist. […] No. PCS-400-030) supplemented with Renal Epithelial Cell Growth Kit (ATCC, Cat. No. PCS-400-040) and 1% Penicillin Streptomycin (Gibco, Cat. No. 15140-122). […] HK-2 and LLC-PK1cells were purchased from ATCC. These two cell lines were maintained in Dulbecco's Modified Eagle Medium (DMEM) supplemented with 10% fetal bovine serum (FBS) and 1% Penicillin Streptomycin. Approval for the work with human kidney samples (DSRB-E/11/143) and cell types (NUS-IRB Ref. Code: 09-[…]) had been obtained. All cells were incubated in a humidified atmosphere at 37° C. and 5% CO2. Cells were seeded into 384-well black plates with transparent bottom (Greiner, Cat. No. 781091). HPTC1 and HPTC6 were seeded at 50,000 cells/cm^2; HPTC10 were seeded at 100,000 cells/cm^2; HK-2 cells were seeded at 20,000 cells/cm^2 and LLC-PK1 cells were seeded at 10,000 cells/cm^2 to adjust for the different growth kinetics of the different cell types and batches used. All cells were cultivated for 3 days to achieve the formation of a differentiated simple epithelium before drug treatment overnight (16 hours). The concentrations of the 43 drugs screened were 1000, 500, 250, 125, 63, 16 and 1.6 μg/mL. Puromycin at 100 μg/mL and TNF-α at 100 ng/mL were used as positive controls. […] The images were automatically analysed by using MetaXpressTM image analysis software version 2.0 using the Translocation-Enhanced Module. […] The intensity ratios of the outer nuclear area versus the inner nuclear area were automatically quantified by the MetaXpressTM image analysis software (version 2.0). The final quantitative results for each data point were the average results from 36 images (4 replicates (wells) with 9 multi-channel images per well). […]

HPTC1 = assay: Cell death in HPTC1 by HCS, based on counts of cell nuclei (Example 3); design: species or system human; settings: HPTC1, 16 hours, 1.6-1000 μg/mL
Text: as §1, with “CO2.” for “CO2. Cells were seeded into 384-well black plates with transparent bottom (Greiner, Cat. No. 781091). HPTC1 and HPTC6 were seeded at 50,000 cells/cm^2; HPTC10 were seeded at 100,000 cells/cm^2; HK-2 cells were seeded at 20,000 cells/cm^2 and LLC-PK1 cells were seeded at 10,000 cells/cm^2 to adjust for the different growth kinetics of the different cell types and batches used. All cells were cultivated for 3 days to achieve the formation of a differentiated simple epithelium before drug treatment overnight (16 hours). The concentrations of the 43 drugs screened were 1000, 500, 250, 125, 63, 16 and 1.6 μg/mL. Puromycin at 100 μg/mL and TNF-α at 100 ng/mL were used as positive controls.”

[3] = HPTC, 16 hours, 1.6-1000 μg/mL, 96-well plates, HCS images

Compound | Qualitative analysis of NF-κB translocation (visual inspection) (NF-κB p65 [1]; [3]) | other results
[K+].[K+].[O]=[Cr](=[O])([O-])[O][Cr](=[O])(=[O])[O-] [potassium dichromate] | positive | 
COc1ccc(C[C@H](N)C(=O)N[C@H]2[C@@H](O)[C@H](n3cnc4c(N(C)C)ncnc43)O[C@@H]2CO)cc1 [puromycin] |  | nuclear translocation of NF-κB (positive control sample) (NF-κB p65 [2]; HPTC1, 16 hours): displayed nuclear translocation of NF-κB
C=CC[C@@H]1/C=C(\C)C[C@H](C)C[C@H](OC)[C@H]2O[C@@](O)(C(=O)C(=O)N3CCCC[C@H]3C(=O)O[C@H](/C(C)=C/[C@@H]3CC[C@@H](O)[C@H](OC)C3)[C@H](C)[C@@H](O)CC1=O)[C@H](C)C[C@@H]2OC [Tacrolimus] |  | EC50 (compound concentration where nuclear translocation of NF-κB occurred in 50% of cells) (NF-κB p65 [2]; HPTC1, 16 hours, 1.6-1000 μg/mL): relatively low; IC50 (compound concentration where cell death occurred in 50% of cells; counts of cell nuclei) (HPTC1): relatively low
bismuth (III) oxide | positive | 
C[n+]1ccc(-c2cc[n+](C)cc2)cc1 [paraquat] |  | Qualitative analysis of NF-κB translocation (visual inspection) (NF-κB p65 [1]): positive
TNF-α |  | nuclear translocation of NF-κB (positive control sample) (NF-κB p65 [2]; HPTC1, 100 ng/mL, 16 hours): displayed nuclear translocation of NF-κB
[Cl][Au] [gold (I) chloride] | positive | 
CC(=O)[O-].CC(=O)[O-].[Pb+2] [lead acetate] | positive | 
O=[As]O[As]=O (stereo not shown) [arsenic (III) oxide] | positive | 
